Test results from patent US12012411B2, “Viral replication inhibitors” (Katholieke Universiteit Leuven, priority 2011, dated 2024).

Assays:
YFV-17D = assay: microbe, parasite or virus in culture; format: cell-based; conditions: Yellow fever virus, Vero B
[1] = test system: DENV-1 Djibouti strain D1/H/IMTSSA/98/606; assay: Antiviral activity against DENV-1 in Vero-B cells (viral RNA load by RT-qPCR); format: cell-based, Dengue virus; conditions: Dengue virus, DENV1, Vero B
[2] = test system: DENV-4 strain Dak HD 34 460; assay: Antiviral activity against DENV-4 in Vero-B cells (viral RNA load by RT-qPCR); format: cell-based, Dengue virus; conditions: Dengue virus, DENV4, Vero B
[3] = test system: uninfected quiescent Vero-B cells; assay: Cytotoxic assay in uninfected quiescent Vero-B cells (MTS/PMS); conditions: 4 days (Table 3)
in vitro = conditions: African green monkey; for CC50 at 4 days: uninfected quiescent Vero-B cells
[4] = test system: DENV-3 strain H87 prototype; assay: Antiviral activity against DENV-3 in Vero-B cells (viral RNA load by RT-qPCR); format: cell-based, Dengue virus; conditions: Dengue virus, DENV3, Vero B
DENV-2 NGC [5] = assay: Antiviral activity against DENV-2 NGC in Vero-B cells (viral RNA load by RT-qPCR); format: cell-based, Dengue virus; conditions: Dengue virus, DENV2, Vero B, DENV-2 in Vero-B cells; inhibition of viral RNA replication by 50% (Table 3)
[6] = Cytotoxicity in A549 cells (MTS/PMS); format: cell-based; conditions: human; A549 cells (Table 6)
Protocol: A similar protocol was used to assess cytotoxicity in A549 cells with the difference that cells were seeded at 2×10^4 cells/well.

DENV-2 NGC [7] = assay: Antiviral activity against DENV-2 NGC in A549 cells (viral RNA load by RT-qPCR); format: cell-based; conditions: Dengue virus, DENV2; DENV-2 in A549 cells (Table 6)
DENV-2 strain D2Y98P = assay: Dengue mortality model in AG129 mice; format: in vivo; conditions: 60 mg/kg/day, sc, twice daily, 17 consecutive days; DENV-2 D2Y98P infected AG129 mice; p: 0.0017; FIG. 1

Row | Compound | EC50 (YFV-17D) | EC50 [1] | EC50 [2] | CC50 [3] | CC50 (in vitro) | EC50 [4] | EC50 (DENV-2 NGC [5]) | CC50 at 4 days [6] | EC50 (DENV-2 NGC [7]) | CC50 at 4 days (in vitro) | delay in virus-induced morbidity (day of euthanasia) (DENV-2 strain D2Y98P)
1 | COc1ccc(NC(C(=O)c2c[nH]c3ccccc23)c2ccccc2)cc1OC (stereo not shown) [CPD-001] | 9.16 µM | 1.6 µM | 4.45 µM | 29 µM | 43 µM | 29.4 µM | 0.08 µM | – | – | – | –
2 | COc1cc(NC(C(=O)c2c[nH]c3ccccc23)c2ccccc2)cc(OC)c1 (stereo not shown) [CPD-002] | 2.81 µM | 0.54 µM | 27.2 µM | 16 µM | 25 µM | < 0.5 µM | 0.01 µM | – | – | – | –
3 | COc1cccc(NC(C(=O)c2c[nH]c3ccccc23)c2ccccc2)c1 (stereo not shown) [CPD-010] | < 0.6 µM | 1.29 µM | 5.43 µM | 18 µM | 12 µM | 3.54 µM | 0.07 µM | 16 µM | 0.066 µM | – | –
4 | COc1cc(NC(C(=O)c2c(C)[nH]c3ccccc23)c2ccccc2)cc(OC)c1 (stereo not shown) [CPD-012] | < 0.5 µM | 4.42 µM | – | – | 12 µM | < 0.5 µM | 0.05 µM | – | – | 14 µM | –
5 | COc1cc(NC(C(=O)c2c[nH]c3cc(Cl)ccc23)c2ccccc2)cc(OC)c1 (stereo not shown) [CPD-013] | 0.52 µM | 0.09 µM | 1.81 µM | – | 11 µM | < 0.5 µM | 0.002 µM | – | – | 9 µM | –
6 | COc1cccc(NC(C(=O)c2c[nH]c3ccccc23)c2cccnc2)c1 (stereo not shown) [CPD-019] | 6.18 µM | 0.67 µM | 8.38 µM | 71 µM | 56 µM | 2.18 µM | 0.14 µM | – | – | – | –
7 | COc1cc(NC(C(=O)c2c[nH]c3ccc(F)cc23)c2ccccc2)cc(OC)c1 (stereo not shown) [CPD-131] | – | 0.25 µM | 4.77 µM | 13 µM | – | 0.68 µM | 0.01 µM | 11 µM | 0.008 µM | – | –
8 | COc1cccc(NC(C(=O)c2csc3ccccc23)c2ccccc2)c1 (stereo not shown) [CPD-193] | < 0.5 µM | 23.7 µM | 5.44 µM | – | > 133 µM | 18.9 µM | 0.72 µM | – | – | > 133 µM | –
9 | COc1cc(NC(C(=O)c2c[nH]c3ccccc23)c2cccnc2)cc(OC)c1 (stereo not shown) [CPD-236] | – | 0.17 µM | 2.45 µM | 69 µM | – | 0.31 µM | 0.02 µM | 65 µM | 0.019 µM | – | –
10 | COc1cncc(NC(C(=O)c2c[nH]c3cc(F)ccc23)c2ccc(OC)nc2)c1 (stereo not shown) [CPD-242] | – | 0.4 µM | 7.87 µM | – | – | 0.57 µM | 0.04 µM | 47 µM | 0.01 µM | 59 µM | highly significant delay
11 | COc1cccc(NC(C(=O)c2c[nH]c3ccccc23)c2nc3ccccc3o2)c1 (stereo not shown) [CPD-328] | – | 0.2 µM | 2.84 µM | 13 µM | – | 0.13 µM | 0.01 µM | 12 µM | 0.006 µM | – | –
